Source: patent publication US12419966B2, “In vivo radical-mediated polymerization for targeted delivery of trophic factors” (RUTGERS, THE STATE UNIVERSITY OF NEW JERSEY, priority 2017, dated 2025)

System: Rat cortical neurons
Assay: Rat cortical neuron cytotoxicity (MTT)
Assay type: cell-based
Conditions: above 500 μM
Method: Rat Cortical Neuron Culture and Cellular Protection Studies (Cytotoxicity and Protection): Rat cortical neurons were isolated from a timed pregnant animal at embryonic day 18 as described in the literature via techniques commonly employed in the literature. Neurons were cultured in Neurobasal media containing 2% B27 supplement, 1% KCl, 1% penicillin/streptomycin, and 0.5% L-glutamine and seeded into 96 well plates at a density of 100,000 cells/well. […] Cellular metabolic activity was then evaluated using the Vybrant MTT assay (Life Technologies) according to the manufacturer's instructions. […] Metabolic activity was again measured using the MTT assay.
(3-(4,5-dimethylthiazol-2-yl)-2,5-diphenyltetrazolium bromide) (MTT) was added to the cultures at 12 mM and allowed to incubate for 4 hours at 37° C. MTT was metabolized by mitochondrial activity to form an insoluble formazan product. The formazan product was solubilized by the addition of sodium dodecyl sulfate and further incubation for 4 hours. Absorbance measurements at 570 nm were collected to determine the amount of MTT that was metabolized by the culture and viability was reported as a percentage of MTT metabolized by uninjured control cultures.

Q: With O=C1O[C@H]([C@@H](O)CO)C(O)=C1O [ascorbic acid] as the molecule, how does the “cellular activity of rat cortical neurons” value read?
A: decreases observed
